Experimental findings from PubChem BioAssay (NCI) are described below.

Common to all, as to assay: growth of human tumour cells (NCI), 48 h
In test [1] the test system is RPMI-8226 leukemia.
Test [2] deals with NCI-H460 lung.
The subject of test [3] is PC-3 prostate.
In test [4] the test system is HT29 colon.
Test [5] has as its system SK-MEL-2 melanoma.
Test [6] relates to U251 CNS.
The subject of test [7] is CAKI-1 renal.
The subject of test [8] is OVCAR-8 ovarian.
For test [9], the system named is UACC-257 melanoma.
The subject of test [10] is K-562 leukemia.
Test [11] deals with HCT-116 colon.
In test [12] the test system is BT-549 breast.
Test [13] concerns SK-MEL-28 melanoma.
In test [14] the test system is HL-60(TB) leukemia.
Test [15] deals with SF-295 CNS.
Test [16] concerns A498 renal.

Molecules are shown by their SMILES.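 Compound exposure: 48 hours, 5 concentrations, 96-well plates. TGI denotes the concentration required for complete inhibition of growth.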

In the case of `CN(C)c1ccc(C2CC(=O)CC(c3ccc(N(C)C)cc3)C23C(=O)NC(=O)NC3=O)cc1` (centres undefined), the TGI in test [1], in test [2], in test [3], in test [4], in [5] and in [6] was over 25 µM each time. The TGI in test [7], in [8], in [9], in [10], in test [11] and in [12] was over 25 µM throughout. Besides, the TGI in [13], in [14] and in [15] was over 25 µM throughout.
In the case of `COc1ccc2oc(=N)c(C(N)=S)cc2c1`, the TGI in test [1] was 82.3 µM; in [2], 39.7 µM; in [3], 93.7 µM; in test [4], over 100 µM; in test [5], 38.3 µM; in [6] it was over 100 µM. Besides, the TGI in test [7] is over 100 µM; in test [8], 38.9 µM; in test [9], 93.4 µM; in test [10], over 100 µM; in test [11], 45.7 µM; in test [12] it was 43.5 µM. Moreover, the TGI in [13], in [14] and in test [15] was over 100 µM throughout.
Consider `CN(C)c1ccc(C(C#N)N2CCCN(C(C#N)c3ccc(N(C)C)cc3)C2c2ccc(N(C)C)cc2)cc1` (centres undefined), for which the TGI in test [1], in test [3], in test [4], in test [5], in test [6] and in [7] was over 100 µM each time. The TGI in test [8], in test [9], in test [10], in [11], in test [12] and in test [13] was over 100 µM each time. Besides, the TGI in [16], in test [14] and in test [15] was over 100 µM each time.
Consider `CCCCCCN(C(=O)Oc1ccccc1)C(C#N)c1ccccc1` (centres undefined), for which the TGI in test [1], in test [3], in test [4], in test [5], in test [6] and in [7] was over 100 µM throughout. Further, the TGI in test [8], in test [9], in test [10], in [11], in [12] and in test [13] was over 100 µM throughout. In addition, the TGI in [16], in [14] and in [15] was over 100 µM in each case.
For `CCCCCCC(N)(CCCCCC)C(=O)Nn1c(C)ccc1C`, the TGI in test [1], in test [2], in test [3], in [4], in test [5] and in [6] was over 100 µM each time. For the same molecule, the TGI in test [8], in test [9], in test [10], in test [11], in test [12] and in test [13] was over 100 µM throughout. The TGI in [16], in [14] and in [15] was over 100 µM each time.
As to `CSc1nc(=S)[nH]c2n[nH]c(C)c12`, the TGI in test [1], in test [2], in test [3], in [4], in test [5] and in test [6] was over 100 µM each time. For the same molecule, the TGI in test [7], in test [8], in test [9], in test [10], in test [11] and in test [12] was over 100 µM throughout. Also, the TGI in test [13], in test [16] and in test [14] was over 100 µM throughout.
`Cc1ccc(S(=O)(=O)N(c2ccccc2F)C2CCCCC2O)cc1` (centres undefined): the TGI is over 100 µM in test [1]; over 100 µM in test [2]; over 100 µM in [3]; over 100 µM in test [4]; 93.7 µM in test [5]; over 100 µM in [6]. The TGI was over 100 µM in [8]; 5.64 µM in test [9]; over 100 µM in [10]; over 100 µM in test [11]; 61.8 µM in [12]; over 100 µM in [13]. The TGI in test [16], in [14] and in test [15] was over 100 µM each time.
`CCn1c(=O)c2c(=O)[nH][nH]c2c2ccccc21`: the TGI in test [1], in test [2], in test [3], in test [4], in [6] and in [8] was over 100 µM throughout. The TGI in test [9], in [10], in test [11], in test [12], in [13] and in test [16] was over 100 µM each time. Moreover, the TGI in [14] and in test [15] was over 100 µM in each case.
For `O=c1cc(-c2ccc(O)c(O)c2)oc2cc(OC3OC(CO)C(O)C(O)C3O)cc(O)c12` (centres undefined), the TGI in test [1], in test [2], in test [3], in [4], in test [5] and in test [6] was over 100 µM each time. For the same molecule, the TGI in [7], in test [8], in test [9], in [11], in [12] and in test [13] was over 100 µM throughout. The TGI in [16], in test [14] and in test [15] was over 100 µM each time.
